Measured values reported in patent US20250197382A1, “KIF18A INHIBITOR” (WIGEN BIOMEDICINE TECHNOLOGY (SHANGHAI) CO., LTD., priority 2022, published 2025).

Target: Recombinant human KIF18A (1-467His-tagged) protein (Homo sapiens (Human), UniProt Q8NI77)
Experiment: KIF18A enzyme assay (microtubule-stimulated ATPase activity, ADP-Glo)
Format: biochemical
Conditions: 30 nM KIF18A, ATP 75 μM, read-out: inhibitory activity against KIF18A IC50
Outline: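 Baculovirus-expressed human KIF18A (1-467, His-tagged; 30 nM) preincubated 15 min at room temperature with compound (22-point 2-fold series) in pH 7.5 Tris buffer containing 30 μg/mL pig microtubules and 1 μM paclitaxel.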

Recombinant human KIF18A (1-467His-tagged) protein, sequence (Q8NI77 1-467): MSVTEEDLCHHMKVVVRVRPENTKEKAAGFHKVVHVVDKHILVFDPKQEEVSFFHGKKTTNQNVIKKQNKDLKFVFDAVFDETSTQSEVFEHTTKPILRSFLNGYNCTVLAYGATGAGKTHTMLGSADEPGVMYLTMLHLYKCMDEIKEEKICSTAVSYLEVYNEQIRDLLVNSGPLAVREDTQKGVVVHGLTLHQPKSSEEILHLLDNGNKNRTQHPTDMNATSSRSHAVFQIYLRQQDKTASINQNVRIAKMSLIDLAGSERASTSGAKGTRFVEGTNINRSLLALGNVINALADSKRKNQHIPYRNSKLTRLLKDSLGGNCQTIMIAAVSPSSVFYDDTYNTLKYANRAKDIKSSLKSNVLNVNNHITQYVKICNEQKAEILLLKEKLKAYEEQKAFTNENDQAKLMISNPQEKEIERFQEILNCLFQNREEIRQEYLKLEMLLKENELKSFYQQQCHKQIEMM
Recombinant human KIF18A (1-467His-tagged) protein, sequence (P02550 whole entry partner): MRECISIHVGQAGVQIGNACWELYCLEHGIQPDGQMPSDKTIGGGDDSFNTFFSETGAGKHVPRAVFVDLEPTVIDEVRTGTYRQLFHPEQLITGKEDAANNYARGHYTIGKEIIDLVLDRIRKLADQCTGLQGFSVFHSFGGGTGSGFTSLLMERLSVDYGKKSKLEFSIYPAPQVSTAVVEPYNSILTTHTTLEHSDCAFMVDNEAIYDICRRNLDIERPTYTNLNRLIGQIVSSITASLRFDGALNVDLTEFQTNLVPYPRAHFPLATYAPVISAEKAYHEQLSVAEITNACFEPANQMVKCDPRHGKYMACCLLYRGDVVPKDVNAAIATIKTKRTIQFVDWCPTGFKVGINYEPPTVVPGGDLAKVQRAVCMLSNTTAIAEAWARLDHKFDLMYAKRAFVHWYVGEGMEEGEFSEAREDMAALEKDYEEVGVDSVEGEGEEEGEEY
Recombinant human KIF18A (1-467His-tagged) protein, sequence (P02554 whole entry partner): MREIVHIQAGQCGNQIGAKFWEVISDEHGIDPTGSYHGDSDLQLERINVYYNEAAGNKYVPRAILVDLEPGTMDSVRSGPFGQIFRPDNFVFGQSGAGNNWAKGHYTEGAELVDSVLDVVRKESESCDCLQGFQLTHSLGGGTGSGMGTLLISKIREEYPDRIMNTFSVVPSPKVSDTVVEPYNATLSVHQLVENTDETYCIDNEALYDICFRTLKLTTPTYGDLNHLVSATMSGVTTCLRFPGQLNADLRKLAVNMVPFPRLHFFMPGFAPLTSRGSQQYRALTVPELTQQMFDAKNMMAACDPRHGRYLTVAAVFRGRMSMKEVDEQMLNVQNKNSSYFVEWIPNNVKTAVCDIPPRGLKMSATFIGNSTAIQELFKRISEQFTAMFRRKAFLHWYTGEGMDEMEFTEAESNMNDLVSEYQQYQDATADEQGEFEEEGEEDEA

Row | Structure (SMILES) | IC50
1 | O=C(Nc1cc(N2CCC(F)(F)CC2)c2nccn2c1)c1ccc(NS(=O)(=O)CCO)cc1N1CCC2(CC1)CC2 [Compound 535] | ≤ 100 nM
2 | O=C(Nc1ccc(S(=O)(=O)NCCO)cc1N1CCC2(CC1)CC2)c1cc(OCCC(F)(F)F)c2occc2c1 [Compound 181] | ≤ 100 nM
3 | C[C@@H]1CN(c2nc(NC(=O)c3ccc(NS(=O)(=O)CCO)cc3N3CCC4(CC3)CC4)cc3c2N(C)CC3)CCO1 [Compound 322] | ≤ 100 nM
4 | Cn1ccc2cc(NC(=O)c3ccc(S(=O)(=O)NCCO)cc3N3CCC4(CC3)CC4)nc(N3CC4CC4C3)c21 (stereo not shown) [Compound 474] | ≤ 100 nM
5 | CC(C)(CO)Nc1nc(NC(=O)c2ccc(S(=O)(=O)NCCO)cc2N2CCC3(CC2)CC3)cc2c1OCC2 [Compound 91] | ≤ 100 nM
6 | Cn1ccc2cc(C(=O)Nc3ccc(NS(=O)(=O)CCO)cc3N3CCC4(CC3)CC4)nc(OCCC(F)(F)F)c21 [Compound 485] | ≤ 100 nM
7 | Cn1ccc2cc(C(=O)Nc3ccc(NS(=O)(=O)CCO)cc3N3CCC4(CC3)CC4)cc(OC3CCC3)c21 [Compound 423] | ≤ 100 nM
8 | O=C(Nc1ccc(NS(=O)(=O)CCO)cc1N1CCC2(CC1)CC2)c1cc2ccoc2c(N2CCC(F)(F)CC2)n1 [Compound 225] | ≤ 100 nM
9 | CN1CCc2cc(NC(=O)c3ccc(NS(=O)(=O)CCO)cc3N3CCC4(CC3)CC4)nc(N3CCC(F)CC3)c21 [Compound 329] | ≤ 100 nM
10 | O=C(Nc1ccc(S(=O)(=O)NCCO)cc1N1CCC2(CC1)CC2)c1cc2c(c(N3CC(F)(F)C3)n1)OCC2 [Compound 116] | ≤ 100 nM
11 | CN1CCc2cc(NC(=O)c3ccc(S(=O)(=O)NCCO)cc3N3CCC4(CC3)CC4)cc(NC(C)(C)CO)c21 [Compound 283] | ≤ 100 nM
12 | O=C(Nc1ccc(NS(=O)(=O)CCO)cc1N1CCC2(CC1)CC2)c1cc2ccoc2c(N2CC(F)(F)C2)n1 [Compound 228] | ≤ 100 nM
13 | C[C@@H](CO)S(=O)(=O)Nc1ccc(C(=O)Nc2cc3c(c(N4CCC(F)(F)CC4)c2)OCC3)c(N2CCC3(CC2)CC3)c1 [Compound 13] | ≤ 100 nM
14 | C[C@@H](CO)NS(=O)(=O)c1ccc(C(=O)Nc2cc(N3CCC(F)(F)CC3)c3c(ccn3C)c2)c(N2CCC3(CC2)CC3)c1 [Compound 413] | ≤ 100 nM
15 | O=C(Nc1cc2c(c(N3CCC(F)(F)CC3)n1)NCCC2)c1ccc(NS(=O)(=O)CCO)cc1N1CCC2(CC1)CC2 [Compound 542] | ≤ 100 nM
16 | C[C@H](CO)NS(=O)(=O)c1ccc(C(=O)Nc2cc3c(c(N4CCC(F)(F)CC4)n2)N(C)CC3)c(N2CCC3(CC2)CC3)c1 [Compound 350] | ≤ 100 nM
17 | C[C@@H]1CN(c2cc(C(=O)Nc3ccc(S(=O)(=O)N[C@@H](C)CO)cc3N3CCC4(CC3)CC4)cc3c2N(C)CC3)CCO1 [Compound 319] | ≤ 100 nM
18 | C[C@H](CO)NS(=O)(=O)c1ccc(C(=O)Nc2cc3c(c(N4CCO[C@H](C)C4)c2)OCC3)c(N2CCC3(CC2)CC3)c1 [Compound 32] | ≤ 100 nM
19 | C[C@@H](CO)NS(=O)(=O)c1ccc(C(=O)Nc2cc(N3CCC(F)(F)CC3)c3occc3c2)c(N2CCC3(CC2)CC3)c1 [Compound 157] | ≤ 100 nM
20 | C[C@@H](CO)S(=O)(=O)Nc1ccc(C(=O)Nc2cc3c(c(N4CCC(F)(F)CC4)n2)N(C)CC3)c(C2CCC3(CC2)CC3)c1 [Compound 333] | ≤ 100 nM
21 | CC(C)(CO)Nc1cc(C(=O)Nc2ccc(S(=O)(=O)NCCO)cc2N2CCC3(CC2)CC3)cc2ccoc12 [Compound 187] | ≤ 100 nM
22 | O=C(Nc1cc2ccoc2c(OC2CCC2)n1)c1ccc(S(=O)(=O)NCCO)cc1N1CCC2(CC1)CC2 [Compound 215] | ≤ 100 nM

Continued, values first:

Row | IC50 | Structure (SMILES)
23 | ≤ 100 nM | O=C(Nc1ccc(S(=O)(=O)NCCO)cc1N1CCC2(CC1)CC2)c1cc2c(c(N3CC4CC4C3)n1)OCC2 (stereo not shown) [Compound 122]
24 | ≤ 100 nM | C[C@H]1CN(c2nc(C(=O)Nc3ccc(S(=O)(=O)NCCO)cc3N3CCC4(CC3)CC4)cc3c2OCC3)CCO1 [Compound 115]
25 | ≤ 100 nM | C[C@H](CO)S(=O)(=O)Nc1ccc(C(=O)Nc2cc3c(c(N4CCC(F)(F)CC4)c2)N(C)CC3)c(N2CCC3(CC2)CC3)c1 [Compound 270]
26 | ≤ 100 nM | C[C@@H]1CN(c2nc(NC(=O)c3ccc(NS(=O)(=O)CCO)cc3N3CCC4(CC3)CC4)cc3ccoc23)CCO1 [Compound 194]
27 | ≤ 100 nM | Cn1ccc2cc(NC(=O)c3ccc(NS(=O)(=O)CCO)cc3N3CCC4(CC3)CC4)cc(OCCC(F)(F)F)c21 [Compound 389]
28 | ≤ 100 nM | CN1CCc2cc(C(=O)Nc3ccc(S(=O)(=O)NCCO)cc3N3CCC4(CC3)CC4)cc(N3CCC(F)(F)CC3)c21 [Compound 305]
29 | ≤ 100 nM | O=C(Nc1cc2ncoc2c(N2CCC(F)(F)CC2)n1)c1ccc(NS(=O)(=O)CCO)cc1N1CCC2(CC1)CC2 [Compound 514]
30 | ≤ 100 nM | CC1(F)CCN(c2cc(C(=O)Nc3ccc(NS(=O)(=O)CCO)cc3N3CCC4(CC3)CC4)cc3c2OCC3)C1 (stereo not shown) [Compound 40]
31 | ≤ 100 nM | Cn1ccc2cc(NC(=O)c3ccc(S(=O)(=O)NCCO)cc3N3CCC4(CC3)CC4)nc(N3CC(F)(F)C3)c21 [Compound 468]
32 | ≤ 100 nM | O=C(Nc1ccc(S(=O)(=O)NCCO)cc1N1CCC2(CC1)CC2)c1cc2c(c(OCCC(F)(F)F)n1)OCC2 [Compound 117]
33 | ≤ 100 nM | C[C@@H]1CN(c2nc(NC(=O)c3ccc(NS(=O)(=O)[C@@H](C)CO)cc3N3CCC4(CC3)CC4)cc3ccn(C)c23)CCO1 [Compound 463]
34 | ≤ 100 nM | O=C(Nc1cc(OC2CCC2)c2occc2c1)c1ccc(S(=O)(=O)NCCO)cc1N1CCC2(CC1)CC2 [Compound 151]
35 | ≤ 100 nM | O=C(Nc1ccc(S(=O)(=O)NCCO)cc1N1CCC2(CC1)CC2)c1cc(N2CCOCC2)c2occc2c1 [Compound 188]
36 | ≤ 100 nM | C[C@H](CO)S(=O)(=O)Nc1ccc(NC(=O)c2cc3c(c(N4CCC(F)(F)CC4)c2)N(C)CC3)c(N2CCC3(CC2)CC3)c1 [Compound 302]
37 | ≤ 100 nM | CN1CCc2cc(C(=O)Nc3ccc(NS(=O)(=O)CCO)cc3N3CCC4(CC3)CC4)cc(N3CCC(F)(F)CC3)c21 [Compound 257]
38 | ≤ 100 nM | Cn1ccc2cc(C(=O)Nc3ccc(NS(=O)(=O)CCO)cc3N3CCC4(CC3)CC4)nc(NC(C)(C)CO)c21 [Compound 491]
39 | ≤ 100 nM | O=C(Nc1cc2c(c(N3CC(F)(F)C3)n1)OCC2)c1ccc(S(=O)(=O)NCCO)cc1N1CCC2(CC1)CC2 [Compound 84]
40 | ≤ 100 nM | Cn1ccc2cc(C(=O)Nc3ccc(NS(=O)(=O)CCO)cc3N3CCC4(CC3)CC4)nc(OC3CCC3)c21 [Compound 487]
41 | ≤ 100 nM | C[C@H]1CN(c2nc(C(=O)Nc3ccc(S(=O)(=O)NCCO)cc3N3CCC4(CC3)CC4)cc3c2N(C)CC3)CCO1 [Compound 371]
42 | ≤ 100 nM | CC1(F)CCN(c2nc(C(=O)Nc3ccc(S(=O)(=O)NCCO)cc3N3CCC4(CC3)CC4)cc3ccoc23)C1 (stereo not shown) [Compound 248]
43 | ≤ 100 nM | Cn1ccc2cc(NC(=O)c3ccc(S(=O)(=O)NCCO)cc3N3CCC4(CC3)CC4)cc(OC3CCC3)c21 [Compound 407]
44 | ≤ 100 nM | Cn1ccc2cc(NC(=O)c3ccc(NS(=O)(=O)CCO)cc3N3CCC4(CC3)CC4)nc(OC3CCC3)c21 [Compound 455]
45 | ≤ 100 nM | CC1(F)CCN(c2cc(C(=O)Nc3ccc(NS(=O)(=O)CCO)cc3N3CCC4(CC3)CC4)cc3ccoc23)C1 (stereo not shown) [Compound 168]
46 | ≤ 100 nM | C[C@@H]1CN(c2cc(NC(=O)c3ccc(S(=O)(=O)N[C@@H](C)CO)cc3N3CCC4(CC3)CC4)cc3c2OCC3)CCO1 [Compound 31]
